In patent publication US9409864B2, “Sulfonamide TRPA1 receptor antagonists” (ARIO PHARMA LIMITED, priority 2013, dated 2016) one finds inhibition and IC50 data, which are given here for 19 molecules.

For this assay, the target named is T1, native human TRPA1 receptors (Homo sapiens, UniProt O75762).
T1 construct: stably expressing native human TRPA1 receptors were used; endogenous in cells; host or cells: A549 human lung adenocarcinoma epithelial cell line
Description: PF-4840154 (1 μM)-induced Ca2+ fluorescence measurements in A549 cell line. The format is cell-based. The following applies: for inhibition at 10 µM: 10 μM compound against 1 μM PF-4840154, A549 cells; for IC50: against PF-4840154 (1 μM)-evoked [Ca2+]i mobilization, A549 cells. The method, then:
PF-4840154 (1 μM)-Induced Ca^2+ Fluorescence Measurements in A549 Cell Line
Human lung adenocarcinoma epithelial cell line (A549) stably expressing native human TRPA1 receptors were used. The cells were cultured in medium consisting of Eagle's minimal essential medium (EMEM) supplemented with 10% fetal bovine serum (FBS), penicillin (100 IU/ml), streptomycin ([…]), L-glutamine (2 mM), sodium bicarbonate (2.5 g/L) and HEPES (24 mM). Cells were kept at 37° C. in 5% CO2/humidified air. For the experiments the cells were seeded at a density of 16,000 cells/well into 96-well black, clear-bottom plates. After 24 hours incubation the cells were loaded with medium supplemented with 2.5 mM probenecid, 3 μM of the calcium sensitive fluorescent dye Fluo-4 AM and 0.01% pluronic acid, for 30 min at 37° C. Afterwards the loading solution was aspirated and 100 μl/well of assay buffer: Hank's Balanced Salt Solution (HBSS) supplemented with 2.5 mM probenecid and 500 μM Brilliant Black (Aldrich) was added. Stock solutions (100 mM) of ligands were made in Dimethyl Sulfoxide (DMSO) and stored at −20° C. Serial dilutions of ligands for experimental use were made in HBSS buffer. After placing both plates (cell culture and compound plate) into the FlexStation II (Molecular Device, Union City, Calif. 94587, US), fluorescence changes were measured. On-line additions were carried out in a volume of […]. To facilitate drug diffusion into the wells in antagonist type experiments, the studies were performed at 36.5° C. and three cycles of mixing (25 μl from each well moved up and down 3 times) were performed immediately after antagonist injection to the wells. All exemplified compounds were tested alone (to address residual agonistic activity) and against 1 μM of PF-4840154 to address inhibitory activity at the initial concentration of 10 μM. For selected examples the entire inhibitory concentration-response curves were constructed and the IC50 value calculated.
PF-4840154 (1 μM) increased [Ca^2+] in the vast majority (95%) of cultured cells which were thereby identified as TRPA1 expressing cells.

As usually defined, the inhibition is how much of the control response was suppressed. Higher therefore signals strong suppression. In general, IC50 refers to the midpoint of a concentration-inhibition curve. High values mean weaker potency in that assay, low ones greater potency in that assay.

T1 sequence (O75762 whole entry): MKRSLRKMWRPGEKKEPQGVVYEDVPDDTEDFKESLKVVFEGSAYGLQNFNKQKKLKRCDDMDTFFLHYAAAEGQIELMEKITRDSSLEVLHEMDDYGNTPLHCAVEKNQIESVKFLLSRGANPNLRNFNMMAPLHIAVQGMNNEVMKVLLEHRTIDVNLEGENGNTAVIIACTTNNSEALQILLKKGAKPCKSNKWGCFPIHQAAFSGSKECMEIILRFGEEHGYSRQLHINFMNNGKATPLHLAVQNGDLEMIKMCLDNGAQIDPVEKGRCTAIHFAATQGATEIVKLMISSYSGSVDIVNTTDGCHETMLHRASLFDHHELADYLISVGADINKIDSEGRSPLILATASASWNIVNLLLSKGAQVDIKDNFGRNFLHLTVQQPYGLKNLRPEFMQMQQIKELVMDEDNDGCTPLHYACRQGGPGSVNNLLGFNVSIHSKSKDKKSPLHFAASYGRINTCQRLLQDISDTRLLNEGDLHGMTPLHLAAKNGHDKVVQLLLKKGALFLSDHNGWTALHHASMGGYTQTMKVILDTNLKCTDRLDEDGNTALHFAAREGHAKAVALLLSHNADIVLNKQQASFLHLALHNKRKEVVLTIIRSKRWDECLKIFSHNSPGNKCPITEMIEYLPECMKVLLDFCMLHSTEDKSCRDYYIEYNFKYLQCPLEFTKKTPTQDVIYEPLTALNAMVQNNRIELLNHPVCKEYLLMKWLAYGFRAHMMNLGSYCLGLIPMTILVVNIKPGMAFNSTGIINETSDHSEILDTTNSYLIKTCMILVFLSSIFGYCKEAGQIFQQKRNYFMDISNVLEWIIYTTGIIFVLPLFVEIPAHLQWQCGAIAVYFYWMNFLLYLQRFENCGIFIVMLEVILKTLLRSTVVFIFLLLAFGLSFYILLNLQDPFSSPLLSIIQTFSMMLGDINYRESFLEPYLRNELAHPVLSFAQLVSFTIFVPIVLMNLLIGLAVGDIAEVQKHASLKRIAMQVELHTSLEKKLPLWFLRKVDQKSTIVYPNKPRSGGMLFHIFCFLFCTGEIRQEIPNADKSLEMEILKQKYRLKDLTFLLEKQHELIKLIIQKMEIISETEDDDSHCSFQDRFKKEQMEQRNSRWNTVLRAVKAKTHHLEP

The molecule `C=C(C(=O)NCc1cc(-c2ccc(OC(F)(F)F)cc2)nc(-c2ccc(OC(F)(F)F)cc2)c1)N(C)S(=O)(=O)c1ccc(Cl)cc1` [Example 20, N-[[2,6-bis[4-(trifluoromethoxy)phenyl]-4-pyridyl]methyl]-2-[(4-chlorophenyl)sulfonyl-methyl-amino]prop-2-enamide] gave an inhibition at 10 µM of 96% and an IC50 of 251 nM.
`C=C(C(=O)NCc1cc(-c2ccc(C(F)(F)F)cc2)nc(N2CCCC2)c1)N(C)S(=O)(=O)c1ccc(Cl)cc1` [Example 13, 2-[(4-chlorophenyl)sulfonyl-methyl-amino]-N-[[2-pyrrolidin-1-yl-6-[4-(trifluoromethyl)phenyl]-4-pyridyl]methyl]prop-2-enamide]: at 10 µM the inhibition was 99% and the IC50 amounted to 182 nM.
`CN(C1(C(=O)NCc2cccc(-c3ccc(C(F)(F)F)cc3)c2)CC1)S(=O)(=O)c1ccc(F)cc1` [Example 58, 1-[(4-fluorophenyl)sulfonyl-methyl-amino]-N-[[3-[4-(trifluoromethyl)phenyl]phenyl]methyl]cyclopropanecarboxamide] yielded an inhibition at 10 µM of 100% and an IC50 of 160 nM.
For the molecule `C=C(C(=O)NCc1ccnc(-c2ccc(C(F)(F)F)cc2)c1)N(CC)S(=O)(=O)c1ccc(Cl)s1` [Example 12, 2-[(5-chloro-2-thienyl)sulfonyl-ethyl-amino]-N-[[2-[4-(trifluoromethyl)phenyl]-4-pyridyl]methyl]prop-2-enamide], the inhibition at 10 µM came to 100% and half-maximal inhibition (IC50) required 33 nM.
The corresponding values for `CCN(C1(C(=O)NCc2cc(-c3ccc(OC(F)(F)F)cc3)nc(N3CCCC3)c2)CC1)S(=O)(=O)c1ccc(F)cc1` [Example 61, 1-[ethyl-(4-fluorophenyl)sulfonyl-amino]-N-[[2-pyrrolidin-1-yl-6-[4-(trifluoromethoxy)phenyl]-4-pyridyl]methyl]cyclopropanecarboxamide] are 95% and 784 nM.
`C=C(C(=O)NCc1cccc(-c2ccc(C(F)(F)F)cc2)c1)N(C)S(=O)(=O)c1ccc(Cl)cc1` [Example 9, 2-[(4-chlorophenyl)sulfonyl-methyl-amino]-N-[[3-[4-(trifluoromethyl)phenyl]phenyl]methyl]prop-2-enamide] registered an inhibition at 10 µM of 98% and an IC50 of 68 nM.
As to `CCN(C1(C(=O)NCc2cc(OC(C)C)nc(-c3ccc(C(F)(F)F)cc3)c2)CC1)S(=O)(=O)c1ccc(F)cc1` [Example 49, 1-[ethyl-(4-fluorophenyl)sulfonyl-amino]-N-[[2-isopropoxy-6-[4-(trifluoromethyl)phenyl]-4-pyridyl]methyl]cyclopropanecarboxamide], the inhibition at 10 µM was found to be 98% and 95 nM corresponded to half-maximal inhibition (IC50).
`CCOc1cc(CNC(=O)C2(N(CC)S(=O)(=O)c3ccc(F)cc3)CC2)cc(-c2ccc(C(F)(F)F)cc2)n1` [Example 52, N-[[2-ethoxy-6-[4-(trifluoromethyl)phenyl]-4-pyridyl]methyl]-1-[ethyl-(4-fluorophenyl)sulfonyl-amino]cyclopropanecarboxamide] came in with an inhibition at 10 µM of 99% and an IC50 of 87 nM.
`C=C(C(=O)NCc1ccnc(-c2ccc(C(F)(F)F)cc2)c1)N(CC)S(=O)(=O)c1cccc(F)c1` [Example 36]: the inhibition at 10 µM amounted to 100% and the IC50 came out at 118 nM.
Molecule `C=C(C(=O)NCc1cc(-c2ccc(C(F)(F)F)cc2)nc(N(C)C)c1)N(CC)S(=O)(=O)c1ccc(Cl)s1` [Example 39, 2-[(5-chloro-2-thienyl)sulfonyl-ethyl-amino]-N-[[2-dimethylamino-6-[4-(trifluoromethyl)phenyl]-4-pyridyl]methyl]prop-2-enamide] came in with an inhibition at 10 µM of 100% and an IC50 of 20 nM.
In turn, `C=C(C(=O)NCc1cc(-c2ccc(OC(F)(F)F)cc2)nc(N2CCCC2)c1)N(CC)S(=O)(=O)c1ccc(F)cc1` [Example 18, 2-[ethyl-(4-fluorophenyl)sulfonyl-amino]-N-[[2-pyrrolidin-1-yl-6-[4-(trifluoromethoxy)phenyl]-4-pyridyl]methyl]prop-2-enamide] showed an inhibition at 10 µM of 100% and an IC50 of 93 nM.
With `CCN(C1(C(=O)NCc2cc(-c3ccc(C(F)(F)F)cc3)nc(N(C)C)c2)CC1)S(=O)(=O)c1ccc(F)cc1` [Example 45, N-[[2-dimethylamino-6-[4-(trifluoromethyl)phenyl]-4-pyridyl]methyl]-1-[ethyl-(4-fluorophenyl)sulfonyl-amino]cyclopropanecarboxamide], at 10 µM the inhibition was 100% and inhibition was half-maximal at 151 nM (IC50).
In turn, `C/C=C(/C(=O)NCc1cccc(-c2ccc(C(F)(F)F)cc2)c1)N(C)S(=O)(=O)c1ccc(Cl)cc1` [Example 23, (Z)-2-[(4-chlorophenyl)sulfonyl-methyl-amino]-N-[[3-[4-(trifluoromethyl)phenyl]phenyl]methyl]but-2-enamide] had an inhibition at 10 µM of 98% and an IC50 of 437 nM.
On to `C=C(C(=O)NCc1ccnc(-c2ccc(OC(F)(F)F)cc2)c1)N(C)S(=O)(=O)c1ccc(C)cc1` [Example 6, 2-(methyl(p-tolylsulfonyl)amino)-N-[[2-[4-(trifluoromethoxy)phenyl]-4-pyridyl]methyl]prop-2-enamide], for which the inhibition at 10 µM turned out to be 100% and half-maximal inhibition (IC50) was put at 355 nM.
Consider `C=C(C(=O)NCc1ccnc(-c2ccc(C(F)(F)F)cc2)c1)N(C)S(=O)(=O)c1ccc(F)cc1` [Example 56, 2-[(4-fluorophenyl)sulfonyl-methyl-amino]-N-[[2-[4-(trifluoromethyl)phenyl]-4-pyridyl]methyl]prop-2-enamide], for which the inhibition at 10 µM was 100% and 275 nM corresponded to half-maximal inhibition (IC50).
The corresponding values for `CCN(C1(C(=O)NCc2cccc(-c3ccc(OC(F)(F)F)cc3)c2)CC1)S(=O)(=O)c1ccc(Cl)s1` [Example 47, 1-[(5-chloro-2-thienyl)sulfonyl-ethyl-amino]-N-[[3-[4-(trifluoromethoxy)phenyl]phenyl]methyl]cyclopropanecarboxamide] are 96% and 113 nM.
`CN(C1(C(=O)NCc2cccc(-c3ccc(OC(F)(F)F)cc3)c2)CC1)S(=O)(=O)c1ccc(F)cc1` [Example 57, 1-[(4-fluorophenyl)sulfonyl-methyl-amino]-N-[[3-[4-(trifluoromethoxy)phenyl]phenyl]methyl]cyclopropanecarboxamide] displayed an inhibition at 10 µM of 97% and an IC50 of 275 nM.
`C=C(C(=O)NCc1cc(-c2ccc(C(F)(F)F)cc2)nc(N2CCOCC2)c1)N(CC)S(=O)(=O)c1ccc(Cl)s1` [Example 43, 2-[(5-chloro-2-thienyl)sulfonyl-ethyl-amino]-N-[[2-morpholino-6-[4-(trifluoromethyl)phenyl]-4-pyridyl]methyl]prop-2-enamide]: at 10 µM the inhibition was 100% and the IC50 came out at 48 nM.
Regarding `CCN(C1(C(=O)NCc2ccnc(-c3ccc(C(F)(F)F)cc3)c2)CC1)S(=O)(=O)c1ccc(Cl)s1` [Example 46, 1-[(5-chloro-2-thienyl)sulfonyl-ethyl-amino]-N-[[2-[4-(trifluoromethyl)phenyl]-4-pyridyl]methyl]cyclopropanecarboxamide], the inhibition at 10 µM is 97% and the IC50 was 63 nM.
